How the values were obtained:
[1] = molecular target: T1, Retinoic acid receptor beta (Homo sapiens) (UniProt P10826); assay: Agonist activity at human RARbeta expressed in human MG63 cells co-transfected with RARE3-SV40-Luc assessed as transcriptional efficacy at 10^-6 M after 2 days by luciferase reporter gene assay realtive to 9-cis-retinoic acid; assay type: functional, cell-based; conditions: MG-63
T1 sequence (whole entry): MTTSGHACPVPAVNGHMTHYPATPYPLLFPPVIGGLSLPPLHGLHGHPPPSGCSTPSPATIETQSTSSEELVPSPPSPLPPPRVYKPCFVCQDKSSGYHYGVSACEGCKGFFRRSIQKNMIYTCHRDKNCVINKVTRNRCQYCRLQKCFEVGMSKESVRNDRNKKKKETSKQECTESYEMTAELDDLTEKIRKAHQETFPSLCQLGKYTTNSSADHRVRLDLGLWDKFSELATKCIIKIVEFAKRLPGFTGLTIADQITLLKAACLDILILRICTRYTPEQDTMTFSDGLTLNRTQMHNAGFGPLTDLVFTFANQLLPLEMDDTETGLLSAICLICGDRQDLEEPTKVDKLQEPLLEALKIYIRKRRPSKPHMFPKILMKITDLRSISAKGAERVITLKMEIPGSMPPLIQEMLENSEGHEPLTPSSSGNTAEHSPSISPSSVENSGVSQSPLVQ

[2] = molecular target: T2, Cellular retinoic acid-binding protein 2 (Rattus norvegicus) (UniProt P51673); assay: Agonist activity at rat CRABP2 expressed in human MG63 cells co-transfected with RXRE-SV40-Luc assessed as transcriptional efficacy at 10^-6 M after 2 days by luciferase reporter gene assay realtive to 9-cis-retinoic acid; assay type: functional, cell-based; conditions: MG-63
T2 sequence (whole entry): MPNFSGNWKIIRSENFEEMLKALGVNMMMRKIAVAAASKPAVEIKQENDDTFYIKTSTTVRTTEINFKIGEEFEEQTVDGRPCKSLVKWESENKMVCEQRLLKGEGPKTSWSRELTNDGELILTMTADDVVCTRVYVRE

Compound | Ratio [1] | Ratio [2]
C=C(C)[C@@H]1CC[C@@H](C)C=C1/C=C/C(C)=C\C=C\C(C)=C\C(=O)O | 0.35 | 1.07
CC(=C/C=C/C(C)=C/C(=O)O)/C=C/C1=C[C@@H]2CC[C@@]1(C)C2(C)C | 1.36 | 2.34
C/C(=C/C=C/C(C)=C/C(=O)O)C1=CC(C)(C)[C@@]23CC[C@@H](C2)C(C)(C)C3=C1 | 0.98 | 0.71
C/C(=C/C=C/C(C)=C/C(=O)O)C1=C[C@H](C)CC[C@H]1C(C)C | 0.14 | 0.37
C=C(C)[C@@H]1CCC2=CC(\C(C)=C/C=C/C(C)=C/C(=O)O)=CC[C@]2(C)[C@H]1C | 0.1 | 0.23
CC(C)=C1CC[C@@H](C)C=C1/C=C/C(C)=C\C=C\C(C)=C\C(=O)O | 0.5 | 1.5
CC(=C/C=C/C(C)=C/C(=O)O)/C=C/C1=C[C@@H]2C[C@H]([C@H]1C)C2(C)C | 0.89 | 1.3
CC(=C/C=C/C(C)=C/C(=O)O)/C=C/C1=C[C@H]2C[C@@H]([C@@H]1C)C2(C)C | 1.48 | 0.52
CC(=C/C=C/C(C)=C/C(=O)O)/C=C/C1=C[C@H](C)CC[C@H]1C(C)C | 0.25 | 1.12
CC(=C/C=C/C(C)=C/C(=O)O)/C=C/C1=CC[C@H]2C[C@@H]1C2(C)C | 1.92 | 2.42
CC(=C/C=C/C(C)=C/C(=O)O)/C=C/C1=C[C@@H](C)CC[C@@H]1C(C)C | 0.38 | 1.37
CC(C)=C1CC[C@H](C)C=C1/C=C/C(C)=C\C=C\C(C)=C\C(=O)O | 0.32 | 2.06
C/C(=C/C=C/C(C)=C/C(=O)O)C1=C[C@H]2CC[C@]1(C)C2(C)C | 0.04 | 0.18
CC(=C/C=C/C(C)=C/C(=O)O)/C=C/C1=C[C@]2(C(C)C)C[C@@H]2[C@H]1C | 1.03 | 2.52
CC(=C/C=C/C(C)=C/C(=O)O)/C=C/C1=CC2CC[C@]1(C)C2(C)C (single isomer, unassigned) | 1.99 | 0.66
C=C(C)[C@H]1CC[C@H](C)C=C1/C=C/C(C)=C\C=C\C(C)=C\C(=O)O | 1.33 | 1.76
